From patent US20140155384A1, “COMPOUNDS AND METHODS OF TREATING DIABETES” (Medivation Technologies, Inc., priority 2011, published 2014)

Tests used:
[1] = molecular target: T1, rat adrenergic α1B receptor (Rattus norvegicus, UniProt P15823); assay: Radioligand binding, adrenergic α1B receptor ([3H]Prazosin); conditions: 0.1 μM compound, Wistar rat liver, read-out: Percentage inhibition of ligand binding, Adrenergic α1B
T1 construct: rat adrenergic α1B receptor obtained from Wistar Rat liver; from tissue; host or cells: Wistar rat liver
T1 sequence (P15823 1-515): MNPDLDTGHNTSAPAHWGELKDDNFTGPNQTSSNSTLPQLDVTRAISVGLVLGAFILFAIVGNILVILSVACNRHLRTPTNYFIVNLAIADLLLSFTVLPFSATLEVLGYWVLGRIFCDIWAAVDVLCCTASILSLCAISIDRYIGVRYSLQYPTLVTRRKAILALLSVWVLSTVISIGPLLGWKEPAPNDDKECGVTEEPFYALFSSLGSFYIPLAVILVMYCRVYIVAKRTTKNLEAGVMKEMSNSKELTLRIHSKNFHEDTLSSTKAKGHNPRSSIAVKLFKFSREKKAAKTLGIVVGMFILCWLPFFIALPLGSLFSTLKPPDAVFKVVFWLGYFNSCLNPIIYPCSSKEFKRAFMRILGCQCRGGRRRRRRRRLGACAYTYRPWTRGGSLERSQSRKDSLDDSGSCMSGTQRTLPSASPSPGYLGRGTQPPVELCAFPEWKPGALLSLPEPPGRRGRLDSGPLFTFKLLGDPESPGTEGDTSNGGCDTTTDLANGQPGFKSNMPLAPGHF
Method: To evaluate in radioligand binding assays the activity of compounds, rat adrenergic α1B receptor obtained from Wistar Rat liver (Garcia-S' ainz, J. et al, Biochem. Biophys. Res. Commun. 186:760, 1992; Michel, A. et al, Br. J. Pharmacol. 98:883, 1989) in a modified Tris-HCl buffer (50 mM Tris-HCl buffer, pH 7.4, 0.5 mM EDTA) was used. Compounds were incubated with 0.25 nM [^3H]Prazosin for 60 min at […]. Non-specific binding was estimated in the presence of 10 μM phentolamine. Receptor proteins were filtered and washed, the filters were then counted to determine [^3H]Prazosin specifically bound. Compounds were screened at 1 μM or lower, using 1% DMSO as vehicle. Compounds were tested in this biochemical assay and percent inhibition of specific binding was determined. Biochemical assay results are presented as the percent inhibition of specific binding in Table 2.

[2] = molecular target: T2, human recombinant adrenergic α1D receptor (Homo sapiens, UniProt P25100); assay: Radioligand binding, adrenergic α1D receptor ([3H]Prazosin); conditions: 0.1 μM compound; HEK-293 cells; 0.6 nM [3H]Prazosin; read-out: Percentage inhibition of ligand binding, Adrenergic α1D
T2 construct: expressed in transfected cells; host or cells: HEK-293
T2 sequence (P25100 1-572): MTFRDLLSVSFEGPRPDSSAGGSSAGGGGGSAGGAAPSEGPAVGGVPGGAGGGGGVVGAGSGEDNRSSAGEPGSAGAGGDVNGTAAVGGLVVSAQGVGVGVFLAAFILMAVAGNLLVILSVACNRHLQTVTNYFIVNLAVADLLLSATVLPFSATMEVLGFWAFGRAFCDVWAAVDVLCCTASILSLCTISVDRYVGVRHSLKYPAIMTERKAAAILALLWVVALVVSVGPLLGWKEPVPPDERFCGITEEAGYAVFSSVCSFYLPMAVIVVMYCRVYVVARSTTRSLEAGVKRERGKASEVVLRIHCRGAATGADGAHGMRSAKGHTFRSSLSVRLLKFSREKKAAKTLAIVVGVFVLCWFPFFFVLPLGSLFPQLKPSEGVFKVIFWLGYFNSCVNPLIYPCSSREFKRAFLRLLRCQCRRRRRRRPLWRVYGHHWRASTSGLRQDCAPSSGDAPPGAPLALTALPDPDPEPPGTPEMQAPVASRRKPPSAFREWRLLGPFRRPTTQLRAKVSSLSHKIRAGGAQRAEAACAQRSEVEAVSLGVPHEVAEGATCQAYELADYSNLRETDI
Method: Compounds were incubated with 0.6 nM [3H]Prazosin for 60 min at 25° C. Non-specific binding was estimated in the presence of 10 μM phentolamine. Receptor proteins were filtered and washed, the filters were then counted to determine [3H]Prazosin specifically bound. Compounds were screened at 1 μM or lower, using 1% DMSO as vehicle. Biochemical assay results are presented as the percent inhibition of specific binding in Table 2.

[3] = molecular target: T3, human recombinant adrenergic α2A receptor (Homo sapiens, UniProt P08913); assay: Radioligand binding, adrenergic α2A receptor ([3H]MK-912); conditions: 0.1 μM compound, Sf9 cells, 1 nM [3H]MK-912; for inhibition at 0.1 µM: read-out: Percentage inhibition of ligand binding, Adrenergic α2A
T3 construct: expressed in transfected cells; host or cells: insect Sf9 cells
T3 sequence (P08913 1-465): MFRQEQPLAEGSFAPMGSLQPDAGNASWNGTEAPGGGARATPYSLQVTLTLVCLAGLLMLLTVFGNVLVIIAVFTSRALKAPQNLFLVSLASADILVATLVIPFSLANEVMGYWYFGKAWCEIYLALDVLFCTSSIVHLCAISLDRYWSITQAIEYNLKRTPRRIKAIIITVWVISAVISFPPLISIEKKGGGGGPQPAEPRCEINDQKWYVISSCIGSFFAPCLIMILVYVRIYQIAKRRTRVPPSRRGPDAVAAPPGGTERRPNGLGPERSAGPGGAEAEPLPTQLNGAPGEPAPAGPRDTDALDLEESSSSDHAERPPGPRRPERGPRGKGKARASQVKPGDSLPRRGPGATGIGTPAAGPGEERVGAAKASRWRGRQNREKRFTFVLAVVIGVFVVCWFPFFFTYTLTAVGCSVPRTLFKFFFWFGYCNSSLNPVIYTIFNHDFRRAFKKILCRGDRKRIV
Method: To evaluate in radioligand binding assays the activity of compounds, human recombinant adrenergic α2A receptor expressed in insect Sf9 cells (Uhlen, S. et al, J. Pharmacol. Exp. Ther. 271:1558, 1994) in a modified Tris-HCl buffer (50 mM Tris-HCl, pH 7.4, 12.5 mM MgCl2, 2 mM EDTA) was used. Compounds were incubated with 1 nM [^3H]MK-912 for 60 min at 25° C. MK912 is (2S-trans)-1,3,4,5′,6,6′,7,12b-octahydro-1′,3′-dimethyl-spiro[2H-benzofuro[2,3-a]quinolizine-2,4′(1′H)-pyrimidin]-2′(3′H)-one hydrochloride Non-specific binding was estimated in the presence of 10 μM WB-4101 (2-(2,6-Dimethoxyphenoxyethyl)aminoethyl-1,4-benzodioxane hydrochloride). Receptor proteins were filtered and washed, the filters were then counted to determine [^3H]MK-912 specifically bound. Compounds were screened at 1 μM or lower, using 1% DMSO as vehicle. Compounds were tested in this biochemical assay and percent inhibition of specific binding was determined. Biochemical assay results are presented as the percent inhibition of specific binding in Table 2.

[4] = molecular target: T4, human recombinant adrenergic α2B receptor (Homo sapiens, UniProt P18089); assay: Radioligand binding, adrenergic α2B receptor ([3H]Rauwolscine); conditions: CHO-K1 cells, read-out: Percentage inhibition of ligand binding, Adrenergic α2B; for inhibition at 0.1 µM: 0.1 μM compound
T4 construct: expressed in transfected cells; host or cells: CHO-K1
T4 sequence (P18089 1-450): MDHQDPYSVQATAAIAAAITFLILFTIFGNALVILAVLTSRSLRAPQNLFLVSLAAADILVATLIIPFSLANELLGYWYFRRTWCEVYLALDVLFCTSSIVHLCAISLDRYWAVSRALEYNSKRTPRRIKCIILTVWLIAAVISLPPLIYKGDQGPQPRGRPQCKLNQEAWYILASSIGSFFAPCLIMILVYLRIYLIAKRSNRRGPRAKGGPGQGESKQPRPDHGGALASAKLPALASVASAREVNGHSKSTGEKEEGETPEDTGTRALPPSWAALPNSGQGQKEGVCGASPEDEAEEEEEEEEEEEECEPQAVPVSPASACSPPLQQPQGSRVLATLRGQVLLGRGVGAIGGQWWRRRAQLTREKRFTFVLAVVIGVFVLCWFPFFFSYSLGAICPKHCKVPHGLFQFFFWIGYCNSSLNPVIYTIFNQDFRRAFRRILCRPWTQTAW
Method: To evaluate in radioligand binding assays the activity of compounds, human recombinant adrenergic α2B receptor expressed in Chinese hamster ovary (CHO) K1 cells (Uhlen, S. et al, Eur. J. Pharmacol. 343(1):93, 1998) in a modified Tris-HCl buffer (50 mM Tris-HCl, pH 7.4, 12.5 mM MgCl2, 1 mM EDTA, 0.2% BSA) was used. Compounds were incubated with 2.5 nM [^3H]Rauwolscine for 60 min at 25° C. Non-specific binding was estimated in the presence of 10 μM Prazosin. Receptor proteins were filtered and washed, the filters were then counted to determine [^3H]Rauwolscine specifically bound. Compounds were screened at 1 μM or lower, using 1% DMSO as vehicle. Compounds were tested in this biochemical assay and percent inhibition of specific binding was determined. Biochemical assay results are presented as the percent inhibition of specific binding in Table 2.

| Structure (SMILES) | inhibition at 0.1 µM [1] | inhibition at 0.1 µM [2] | inhibition at 0.1 µM [3] | inhibition at 0.1 µM [4] | Percentage inhibition of ligand binding, Adrenergic α2A [3] | inhibition at 0.03 µM ([4]; 0.03 μM compound) |
| --- | --- | --- | --- | --- | --- | --- |
| Cc1ccc2c(c1)c1c(n2-c2ccccc2-c2ccncc2)CCN(C)C1 [Compound 5, 2,8-dimethyl-5-(2-pyridin-4-yl-phenyl)-2,3,4,5-tetrahydro-1H-pyrido[4,3-b]indole] | 52% | 45% | 26% | 78% | – | – |
| Cc1ccc2c(c1)c1c(n2-c2ccccc2-c2ccc(F)cc2)CCN(C)C1 [Compound 10, 5-(4′-fluoro-biphenyl-2-yl)-2,8-dimethyl-2,3,4,5-tetrahydro-1H-pyrido[4,3-b]indole] | 61% | 63% | 88% | 85% | – | – |
| Cc1ccc2c(c1)c1c(n2-c2ccsc2)CCN(C)C1 [Compound 14, 2,8-dimethyl-5-thiophen-3-yl-2,3,4,5-tetrahydro-1H-pyrido[4,3-b]indole] | 38% | 20% | 23% | 51% | – | – |
| Cc1ccc2c(c1)c1c(n2-c2ccoc2)CCN(C)C1 [Compound 15, 5-furan-3-yl-2,8-dimethyl-2,3,4,5-tetrahydro-1H-pyrido[4,3-b]indole] | 35% | 19% | 10% | 30% | – | – |
| Cc1ccc2c(c1)c1c(n2-c2cccs2)CCN(C)C1 [Compound 16, 2,8-dimethyl-5-thiophen-2-yl-2,3,4,5-tetrahydro-1H-pyrido[4,3-b]indole] | 8% | 16% | -1% | 16% | – | – |
| Cc1ccc2c(c1)c1c(n2-c2cscc2-c2cnn(C)c2)CCN(C)C1 [Compound 30] | 32% | 17% | 42% | 86% | – | – |
| Cc1ccc2c(c1)c1c(n2-c2ccccc2-c2cnc(N(C)C)nc2)CCN(C)C1 [Compound 31] | 36% | 80% | 74% | 67% | – | – |
| Cc1ccc2c(c1)c1c(n2-c2ccccc2-c2ccnn2C)CCN(C)C1 [Compound 32] | 73% | 65% | 72% | 80% | – | – |

The remaining lines, values ahead:

| inhibition at 0.1 µM [1] | inhibition at 0.1 µM [2] | inhibition at 0.1 µM [3] | inhibition at 0.1 µM [4] | Percentage inhibition of ligand binding, Adrenergic α2A [3] | inhibition at 0.03 µM ([4]; 0.03 μM compound) | Structure (SMILES) |
| --- | --- | --- | --- | --- | --- | --- |
| – | 22% | 10% | 87% | 19% | 61% | Cc1ccc2c(c1)c1c(n2-c2ccccc2-c2cn[nH]c2)CCN(C)C1 [Compound No. 104, 5-(2-(1H-pyrazol-4-yl)phenyl)-2,8-dimethyl-2,3,4,5-tetrahydro-1H-pyrido[4,3-b]indole] |
| – | – | 1% | – | – | – | Cc1ccc2c(c1)c1c(n2-c2cnc3c(c2)CCCC3)CCN(C)C1 [Compound No. 153] |
| – | – | – | 56% | – | – | Cc1ccc2c(c1)c1c(n2-c2ccccc2-c2cnccc2C)CCN(C)C1 [Compound No. 159, 2,8-dimethyl-5-(2-(4-methylpyridin-3-yl)phenyl)-2,3,4,5-tetrahydro-1H-pyrido[4,3-b]indole] |
| – | – | – | 74% | – | – | Cc1ccc2c(c1)c1c(n2-c2ccccc2-c2ccc(S(C)(=O)=O)cc2)CCN(C)C1 [Compound No. 160, 2,8-dimethyl-5-(4′-(methylsulfonyl)biphenyl-2-yl)-2,3,4,5-tetrahydro-1H-pyrido[4,3-b]indole] |
| – | – | – | 26% | – | – | Cc1ccc2c(c1)c1c(n2-c2ncccc2-c2ccncc2)CCN(C)C1 [Compound No. 161, 5-(3,4′-bipyridin-2-yl)-2,8-dimethyl-2,3,4,5-tetrahydro-1H-pyrido[4,3-b]indole] |
| – | – | – | 69% | – | – | Cc1ccc2c(c1)c1c(n2-c2ccccc2-c2ccc(S(N)(=O)=O)cc2)CCN(C)C1 [Compound No. 163, 2′-(2,8-dimethyl-3,4-dihydro-1H-pyrido[4,3-b]indol-5(2H)-yl)biphenyl-4-sulfonamide] |
| – | – | – | 3% | – | – | Cc1ccc2c(c1)c1c(n2-c2cnc(C)c3ccccc23)CCN(C)C1 [Compound No. 164, 2,8-dimethyl-5-(1-methylisoquinolin-4-yl)-2,3,4,5-tetrahydro-1H-pyrido[4,3-b]indole] |
